Measured values as given in US5068247A, “2-aminopentanoic acid compounds and their use as immunosuppressants” (priority 1989, dated 1991).
In brackets after ≈: the same amount, converted by molar mass. Where a name gives a salt, the structure may show the parent alone.

Columns and labels:
[1] = tested on: IL-3 production in PHA-stimulated mouse spleen cells; test: suppression of IL-3 production in PHA-stimulated mouse spleen cells; format: cell-based
Procedure: (§1) The suppression of IL-2 and IL-3 production in the mitogen-stimulated mouse spleen cells was examined as follows:
(§2) The spleen was resected from 5- to 8-week-old male C3H/HeN mice, and a single cell suspension of spleen cells was prepared by using the RPMI1640 culture medium. After hemolytic treatment, the concentration of the suspension was adjusted to 10^7 cells/ml by using the RPMI1640 culture medium supplemented with 20% FCS, to which 10 μg/ml of phytohemagglutinin (PHA) was added as mitogen. […] After termination of culture, the supernatant was collected and used as the culture supernatant of PHA-stimulated mouse spleen cells.
The IL-3 activity was assayed as follows:
(§3) IL-3-dependent mouse cell line FDC-P2 cells were suspended in the RPMI1640 culture medium supplemented with 10% FCS to the concentration of 2×10^5 cells/ml. One hundred μl of the cell suspension and 100 μl of the two-fold serial dilution of the culture supernatant of PHA-stimulated mouse spleen cells described above were added to a 96-well flat-bottomed microtest plate. […] The IL-3 activity is expressed in U/ml as the dilution at which the absorbancy measured by MTT method was 50% of the maximum.

[2] = tested on: IL-2 production in PHA-stimulated mouse spleen cells; test: suppression of IL-2 production in PHA-stimulated mouse spleen cells; format: cell-based
Procedure: as §1, §2
The IL-2 activity in the culture supernatant of PHA-stimulated mouse spleen cells was assayed as follows:
as §3, with “IL-2 dependent” for “IL-3-dependent”, “CTLL-2” for “FDC-P2”, “30%” for “10%”, “cells” for “cells described above”, “IL-2” for “IL-3”

[3] = tested on: mouse allogenic MLR (BALB/c mouse spleen cells stimulated with C57BL/6 mouse spleen cells); test: mouse allogenic mixed lymphocyte reaction (MLR), 3H-thymidine uptake; format: cell-based
Procedure: The immunosuppressive activity of the compounds was assayed on the basis of mouse allogenic mixed lymphocyte reaction (hereinafter sometimes abbreviated as MLR). Mouse allogenic MRL was carried out using a mixed culture of BALB/c mouse (H-2^d) spleen cells as the responder cells and mitomycin C-treated C57BL/6 ([…]) mouse spleen cells as the stimulator cells in equal amounts.
The responder cells were prepared as follows:
The spleen was resected from 5- to 6-week-old BALB/c mice, and single cell suspension of spleen cells was prepared by using the RPMI1640 culture medium (containing 60 μg/ml of kanamycin sulfate, 2 mM of L-glutamine, 10 mM of N-2-hydroxyethylpiperazine-N'-2-ethanesulphonate (HEPES) and 0.1% sodium hydrogencarbonate) to which heat-inactivated fetal calf serum (hereinafter sometimes abbreviated as FCS) had been added to 5%. After hemolytic treatment, the cell suspension was adjusted to a concentration of 10^7 cells/ml with the RPMI1640 culture medium supplemented with 10^-4 M 2-mercapto-ethanol and 20% FCS, and was used as the responder cell suspension.
The stimulator cells were prepared as follows: The spleen was resected from 5- to 6-week-old male C57BL/6 mice, and a single cell suspension of spleen cells was prepared by using the RPMI1640 culture medium. After hemolytic treatment, the cells were treated with 40 μg/ml of mitomycin C at 37° C. for 60 minutes. After washing three times, the cell suspension was adjusted to a concentration of 10^7 cells/ml with the RPMI1640 culture medium supplemented with 10^-4 M 2-mercapto-ethanol and 20% FCS, and was used as the stimulator cell suspension.
The blastogenesis of lymphocytes was assayed using ^3 H-thymidine uptake as an index. That is, after termination of culture, 18.5 KBq/well of ^3 H-thymidine was added thereto and the suspension was cultured for 4 hours. Cells were harvested by a cell-harvester, and the radioactivity incorporated into the cells was determined by a liquid scintillation counter, which was used as an index of blastogenesis of lymphocytes in the mouse allogenic MLR. The suppression of the mouse allogenic MLR was evaluated by calculating the percent suppression by the following formula.
The test substance dissolved in methanol was diluted with the RPMI1640 culture medium and put to use.

[4] = tested on: allo-reactive cytotoxic T cells in spleen of EL4-immunized BALB/c mice; test: suppression of allo-reactive cytotoxic T cells induced by immunization of mouse with allogenic cells; format: in vivo; settings: Table 9F
Procedure: Male 5- to 7-week-old BALB/c mice (H-2^d) were immunized with leukemia cell EL4 derived from C57BL/6 mice (H-2^b) (10^7 cells/mouse, intraperitoneal administration), and the test substance was administered intraperitoneally 5 times at the doses of 0.001 to 3 mg/kg/day or orally at the doses of 0.3 to 10 mg/kg/day from the day of immunization. Nine to ten days after immunization, the spleen was resected from the mice to prepare a single cell suspension and the suspension was used as effector cell suspension. The ^51 Cr-release assay was carried out in the same way as in Experiment Example 3, using EL4 cells as the target cells to measure the cytotoxic activity.
The activity of allo-reactive cytotoxic T cell is indicated by lytic unit (LU) per spleen. One lytic unit (LU) is defined as the number of effector cells required to cause 25% lysis of 5×10^3 target cells. At the same time, the body weight of mouse and number of spleen cells were also determined.

[5] = tested on: allo-specific cytotoxic antibody in serum of EL4-immunized BALB/c mice; test: suppression of allo-specific cytotoxic antibody production induced by allogenic cell immunization of mouse; format: in vivo
Procedure: Male 5- to 7-week-old BALB/c mice were immunized with leukemia cell EL4 derived from C57BL/6 mice (10^7 cells/mouse, intraperitoneal administration) in the same way as in Experiment Example 9, and the […] Nine to ten days after immunization, a serum was collected from the mice. Fifty μl of the two-fold serial dilution of the serum, 50 μl of a guinea pig complement and EL4 cell suspension labelled with ^51 Cr as the target cell (5×10^4 cells/ml, 100 μl) were together added to a 96-well microtest plate. After incubation at 37° C. for 1 hour, the amount of ^51 Cr released in the supernatant was measured, and the complement-dependent cytotoxicity was calculated by the following formula. [formula]
The value of allo-specific cytotoxic antibody determined as above was expressed by the titer calculated on the basis of the concentration at which the releasing amount of ^51 Cr was 50% of that of ^51 Cr-labelled target cells treated with 0.1 N HCl.

[6] = Mus musculus, 24 h, 0.001 μg/ml, read-out: Suppression
[7] = Mus musculus, 24 h, 0.01 μg/ml, read-out: Suppression
[8] = Mus musculus, 24 h, 0.1 μg/ml, read-out: Suppression
[9] = Mus musculus, 24 h, 1 μg/ml, read-out: Suppression
[10] = 0.003 mg/kg/day iv × 9, Table 10F
[11] = 0.01 mg/kg/day iv × 9, Table 10F
[12] = 0.03 mg/kg/day ip × 5, Table 10E
[13] = 0.03 mg/kg/day iv × 9, Table 10F
[14] = 0.1 mg/kg/day ip × 5, Table 10E
[15] = 0.1 mg/kg/day iv × 9, Table 10F
[16] = 0.3 mg/kg/day ip × 5, Table 10E
[17] = 0.3 mg/kg/day iv × 9, Table 10F

N[C@](CO)(C(=O)O)[C@@H](O)[C@H](O)CCO [Example 6] was tested, and the IL-3 activity ([1]; 0.001 μg/ml) was 23.8 U/ml, the IL-3 activity ([1]; 0.01 μg/ml) was 23.4 U/ml and the IL-3 activity ([1]; 0.1 μg/ml) was 23.3 U/ml. For the same molecule, the IL-3 activity ([1]; 1 μg/ml) was 20.0 U/ml, the inhibition at 0.001 µg/mL [1, 6] was 2.9% and the inhibition at 0.01 µg/mL [1, 7] was 4.5%. It also gave an inhibition at 0.1 µg/mL [1, 8] of 4.9%, an inhibition at 1 µg/mL [1, 9] of 18.4% and an IL-2 activity ([2]; 0.001 μg/ml) of 12.6 U/ml. The IL-2 activity ([2]; 0.01 μg/ml) was 10.2 U/ml, the IL-2 activity ([2]; 0.1 μg/ml) was 9.5 U/ml and the IL-2 activity ([2]; 1 μg/ml) was 8.3 U/ml. The inhibition at 0.001 µg/mL [2, 6] was 6.7%, the inhibition at 0.01 µg/mL [2, 7] was 24.4% and the inhibition at 0.1 µg/mL [2, 8] was 29.6%. For the same molecule, the inhibition at 1 µg/mL [2, 9] was 38.5%, the 3H-thymidine uptake ([3]; 0.0001 μg/ml, Table 1A) was 16771 cpm and the 3H-thymidine uptake ([3]; 0.001 μg/ml, Table 1A) was 13692 cpm. It also gave a 3H-thymidine uptake ([3]; 0.01 μg/ml, Table 1A) of 13806 cpm, a 3H-thymidine uptake ([3]; 0.1 μg/ml, Table 1A) of 14508 cpm and a 3H-thymidine uptake ([3]; 1 μg/ml, Table 1A) of 7545 cpm. For the same molecule, the inhibition at 0.0001 µg/mL ([3]; Mus musculus, Lymphocyte, 0.0001 μg/ml, Table 1A, read-out: Suppression) was 9.9%, the inhibition at 0.001 µg/mL ([3]; Mus musculus, Lymphocyte, 0.001 μg/ml, Table 1A, read-out: Suppression) was 18.5% and the inhibition at 0.01 µg/mL ([3]; Mus musculus, Lymphocyte, 0.01 μg/ml, Table 1A, read-out: Suppression) was 27.5%. The inhibition at 0.1 µg/mL ([3]; Mus musculus, Lymphocyte, 0.1 μg/ml, Table 1A, read-out: Suppression) was 23.4%, the inhibition at 1 µg/mL ([3]; Mus musculus, Lymphocyte, 1 μg/ml, Table 1A, read-out: Suppression) was 64.8% and the IC50 ([3]; Mus musculus, Lymphocyte, read-out: 50%-inhibition concentration (IC50) in mouse allogenic MLR) was 0.045 µg/mL (≈ 0.215 µM).

CCCCCCCCCCCCC/C=C/C[C@@H](O)[C@H](O)[C@@](N)(CO)C(=O)O [potassium salt of compound of Example 5] gave a 3H-thymidine uptake ([3]; 0.0001 μg/ml, Table 1B) of 5622 ± 898 cpm, a Suppression ([3]; 0.0001 μg/ml, Table 1B) of 0% and a 3H-thymidine uptake ([3]; 0.001 μg/ml, Table 1B) of 4984 ± 3755 cpm. The Suppression ([3]; 0.001 μg/ml, Table 1B) was 7.5%, the 3H-thymidine uptake ([3]; 0.01 μg/ml, Table 1B) was 1324 ± 16 cpm and the Suppression ([3]; 0.01 μg/ml, Table 1B) was 85.5%. The 3H-thymidine uptake ([3]; 0.1 μg/ml, Table 1B) was 787 ± 257 cpm, the Suppression ([3]; 0.1 μg/ml, Table 1B) was 97.0% and the 3H-thymidine uptake ([3]; 1 μg/ml, Table 1B) was 783 ± 28 cpm. For the same molecule, the Suppression ([3]; 1 μg/ml, Table 1B) was 97.1%.

With CCCCCCCCCCCCC/C=C/C[C@@H](O)[C@H](O)[C@@](N)(CO)C(=O)O [sodium salt of the compound of Example 5] the “induction of allo-reactive cytotoxic T cells, sodium salt relative to the compound of Example 5 (in words)” value [4] was “suppressive activity almost equivalent to that of the compound of Example 5 other than sodium salt”, the “suppressive activity of the sodium salt relative to that of the compound of Example 5” value ([3]; Table 1B) was “almost the equivalent suppressive activity” and the “Allogenic cell-specific antibody in serum, suppression” value [5, 10] was 6.0%. For the same molecule, the “Allogenic cell-specific antibody in serum, titer” value [5, 10] was 236 ± 76, the “Allogenic cell-specific antibody in serum, suppression” value [5, 11] was 39.4% and the “Allogenic cell-specific antibody in serum, titer” value [5, 11] was 152 ± 27. For the same molecule, the “Allogenic cell-specific antibody in serum, suppression” value [5, 12] was 50.3%, the “Allogenic cell-specific antibody in serum, titer” value [5, 12] was 94 ± 14 and the “Allogenic cell-specific antibody in serum, suppression” value [5, 13] was 68.5%. For the same molecule, the “Allogenic cell-specific antibody in serum, titer” value [5, 13] was 79 ± 50, the “Allogenic cell-specific antibody in serum, suppression” value [5, 14] was 73.5% and the “Allogenic cell-specific antibody in serum, titer” value [5, 14] was 50 ± 4. For the same molecule, the “Allogenic cell-specific antibody in serum, suppression” value [5, 15] was 84.1%, the “Allogenic cell-specific antibody in serum, titer” value [5, 15] was 40 ± 23 and the “Allogenic cell-specific antibody in serum, suppression” value [5, 16] was 88.9%. For the same molecule, the “Allogenic cell-specific antibody in serum, titer” value [5, 16] was 21 ± 8, the “Allogenic cell-specific antibody in serum, suppression” value [5, 17] was 81.7% and the “Allogenic cell-specific antibody in serum, titer” value [5, 17] was 46 ± 11. The “production of allo-specific cytotoxic antibody, sodium salt relative to the compound of Example 5 (in words)” value ([5]; Table 10E) was “suppressive activity almost equivalent to that of the compound of Example 5 other than sodium salt”.
